This passage reports volumetric activity results from article PMC7272483, “Insights into the pH-dependent, extracellular sucrose utilization and concomitant levan formation by Gluconobacter albidus TMW 2.1191” (Antonie Van Leeuwenhoek, 2020).

Molecules are shown by their SMILES.

The assay addresses T1, levansucrase of G. albidus TMW 2.1191 (Gluconobacter albidus, UniProt A0A149SZ56).
T1 construct: gene lsc-2; cloned levansucrase gene expressed from pBAD in E. coli Top 10, crude lysate (Ni-NTA purification failed); native released enzyme ~48 kDa monomer, also tested in crude buffer supernatant
T1 sequence (A0A149SZ56 1-436): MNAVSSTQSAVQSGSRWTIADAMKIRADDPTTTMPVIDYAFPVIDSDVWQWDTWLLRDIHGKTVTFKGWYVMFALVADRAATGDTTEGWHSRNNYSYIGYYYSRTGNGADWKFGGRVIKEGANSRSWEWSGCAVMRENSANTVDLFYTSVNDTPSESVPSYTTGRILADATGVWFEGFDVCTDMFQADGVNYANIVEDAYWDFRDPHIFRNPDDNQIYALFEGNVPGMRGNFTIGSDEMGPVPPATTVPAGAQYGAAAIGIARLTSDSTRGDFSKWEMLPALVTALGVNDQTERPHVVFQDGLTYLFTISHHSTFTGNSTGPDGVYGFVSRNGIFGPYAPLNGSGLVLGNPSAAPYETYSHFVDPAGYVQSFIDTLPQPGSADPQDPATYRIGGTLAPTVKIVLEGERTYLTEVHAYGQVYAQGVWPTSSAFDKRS
As to the kind of experiment: glucose/fructose release, enzymatic D-fructose/D-glucose kit. The assay is classed as cell-based. The settings on record: E. coli lysate with recombinant enzyme; pH 3.0-7.0, 30 °C, 1 h; hydrolysis and transfructosylation.

As to `OC[C@H]1O[C@@](CO)(O[C@H]2O[C@H](CO)[C@@H](O)[C@H](O)[C@H]2O)[C@@H](O)[C@@H]1O` [sucrose], the volumetric activity entry is “the enzyme exhibits comparable activities and Michaelis–Menten kinetics within a broad pH range”.
